Laboratory results from US8486939B2, “Pyrimidinyl and 1,3,5-triazinyl benzimidazoles and their use in cancer therapy” (Pathway Therapeutics Inc., priority 2009, dated 2013).

Tests used:
[1] = tested on: NZOV9; assay: Cellular growth inhibition (3H-thymidine incorporation); format: cell-based; details: Homo sapiens, five days incubation, 3H-thymidine over the last 6 hrs, read-out: Cell IC50* NZOV9
Protocol: (§1) The compounds were evaluated against two early passage human cell lines NZB5 and NZOV9 (Marshall et al., Oncol. Res. 2004, 14, 297). The cells were grown in ITS medium (α-modified minimal essential medium supplemented insulin, transferrin, selenite, and 5% fetal bovine serum) and grown on 96-well tissue culture plates under an atmosphere of 5% O2, 5% CO2, and 90% N2. Individual wells contained 500-1,000 cells (depending on the growth rate) in a volume of 150 μL. Compounds were added at 10-fold concentration steps to a maximum of 20 μM and plates were incubated for five days, with ^3H-thymidine being added over the last 6 hrs. Cells were harvested and incorporated radioactivity measured. Duplicate samples were analyzed for each compound dose with multiple control samples. Data were fitted by a least-squares method to an exponential of the form y=y0+ae^−bx, where y is the radioactivity (corrected for background and normalized to 100% of the control), x is the […], and y0, a, and b are variables, and the IC50 value defined as the compound concentration reducing ^3H-thymidine levels by 50%.

[2] = tested on: NZB5; assay: as above; format: cell-based; details: Homo sapiens, five days incubation, 3H-thymidine over the last 6 hrs, read-out: Cell IC50* NZB5
Protocol: as §1

[3] = molecular target: p110β/p85 (Homo sapiens, UniProt P42338); assay: Inhibition of isolated enzyme (lipid kinase assay, [γ33P]ATP, TLC); format: biochemical; details: recombinant enzyme, 100 μM ATP, 1 hr room temperature, average of two experiments
Protocol: (§2) Compounds were evaluated for their ability to inhibit Class I PI 3-kinase enzymes p110δ/p85, p110α/p85, and p110β/p85. Reaction mixtures comprising 0.1 μg of a recombinant enzyme, 10 μg of L-α-phosphatidylinositol, and 2× Lipid Kinase Buffer (40 mM Tris-HCl, pH 7.4, 200 mM NaCl, 1 mM EDTA), which contains either DMSO only as a control or the test compound in DMSO (the final DMSO concentration is 1%), were activated by the addition of an ATP mix (5 mM MgCl2, 100 μM ATP, and 0.1 μL [γ^33P]ATP). Reactions were incubated at room temperature for 1 hr, and then stopped by the addition of 1M HCl. The lipids were then extracted using a two step procedure. Firstly, 200 μL of chloroform/methanol (1:1) was added, the biphasic reactions mixed and centrifuged briefly, and the inorganic phase was removed and discarded. Following this, 80 μL of methanol:HCl (1:1) was added and the same procedure followed. The organic phase (70 μL) was then transferred to a clean 1.6 mL tube and the reactions were dried using a Speedvac, with no heating, for […]. The reactions were spotted onto TLC plates (Merck Ltd) and developed for 1 hr in propanol-1:2 M acetic acid (13:7). The TLC plates were then dried at room temperature and quantified using a phosphorimager (StormImager, Amersham). Nine compound concentrations were used for each test compound to determine its IC50 value. Each experiment was performed twice and the average IC50 value is used herein.

[4] = molecular target: p110α/p85 (Homo sapiens, UniProt P42336); assay: as above; format: biochemical; details: recombinant enzyme, 100 μM ATP, 1 hr room temperature, average of two experiments
Protocol: as §2

[5] = molecular target: p110δ/p85 (Homo sapiens, UniProt O00329); assay: as above; format: biochemical; details: recombinant enzyme, 100 μM ATP, 1 hr room temperature, average of two experiments
Protocol: as §2

Sequence of p110δ/p85 (O00329 whole entry, species assumed): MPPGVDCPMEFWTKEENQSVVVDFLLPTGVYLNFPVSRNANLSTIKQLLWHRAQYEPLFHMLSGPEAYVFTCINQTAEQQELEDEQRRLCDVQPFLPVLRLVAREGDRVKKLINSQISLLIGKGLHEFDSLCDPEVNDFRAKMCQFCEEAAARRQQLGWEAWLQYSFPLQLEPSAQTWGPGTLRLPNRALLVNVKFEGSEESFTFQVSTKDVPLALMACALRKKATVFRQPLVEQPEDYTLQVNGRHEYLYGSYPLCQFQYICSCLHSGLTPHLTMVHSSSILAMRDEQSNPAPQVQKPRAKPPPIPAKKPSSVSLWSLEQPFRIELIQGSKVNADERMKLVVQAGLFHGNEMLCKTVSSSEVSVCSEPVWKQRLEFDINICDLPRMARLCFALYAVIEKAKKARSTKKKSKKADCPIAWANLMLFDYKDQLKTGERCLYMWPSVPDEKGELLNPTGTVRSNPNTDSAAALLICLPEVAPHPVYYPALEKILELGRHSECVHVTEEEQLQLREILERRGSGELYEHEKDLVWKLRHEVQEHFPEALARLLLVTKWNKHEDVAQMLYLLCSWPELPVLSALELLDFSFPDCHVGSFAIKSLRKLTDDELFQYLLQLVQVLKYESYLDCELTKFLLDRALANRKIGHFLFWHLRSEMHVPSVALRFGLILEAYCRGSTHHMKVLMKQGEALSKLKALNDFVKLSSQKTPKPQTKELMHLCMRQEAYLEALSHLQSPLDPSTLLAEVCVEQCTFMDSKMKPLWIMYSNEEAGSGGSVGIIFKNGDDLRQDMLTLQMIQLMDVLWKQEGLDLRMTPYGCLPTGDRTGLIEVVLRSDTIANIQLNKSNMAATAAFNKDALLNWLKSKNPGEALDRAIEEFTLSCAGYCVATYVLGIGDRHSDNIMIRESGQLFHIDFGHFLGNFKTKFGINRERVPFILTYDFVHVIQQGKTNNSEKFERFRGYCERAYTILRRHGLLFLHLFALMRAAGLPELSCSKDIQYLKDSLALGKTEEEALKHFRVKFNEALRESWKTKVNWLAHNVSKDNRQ
Sequence of p110δ/p85 (P27986 whole entry partner, species assumed): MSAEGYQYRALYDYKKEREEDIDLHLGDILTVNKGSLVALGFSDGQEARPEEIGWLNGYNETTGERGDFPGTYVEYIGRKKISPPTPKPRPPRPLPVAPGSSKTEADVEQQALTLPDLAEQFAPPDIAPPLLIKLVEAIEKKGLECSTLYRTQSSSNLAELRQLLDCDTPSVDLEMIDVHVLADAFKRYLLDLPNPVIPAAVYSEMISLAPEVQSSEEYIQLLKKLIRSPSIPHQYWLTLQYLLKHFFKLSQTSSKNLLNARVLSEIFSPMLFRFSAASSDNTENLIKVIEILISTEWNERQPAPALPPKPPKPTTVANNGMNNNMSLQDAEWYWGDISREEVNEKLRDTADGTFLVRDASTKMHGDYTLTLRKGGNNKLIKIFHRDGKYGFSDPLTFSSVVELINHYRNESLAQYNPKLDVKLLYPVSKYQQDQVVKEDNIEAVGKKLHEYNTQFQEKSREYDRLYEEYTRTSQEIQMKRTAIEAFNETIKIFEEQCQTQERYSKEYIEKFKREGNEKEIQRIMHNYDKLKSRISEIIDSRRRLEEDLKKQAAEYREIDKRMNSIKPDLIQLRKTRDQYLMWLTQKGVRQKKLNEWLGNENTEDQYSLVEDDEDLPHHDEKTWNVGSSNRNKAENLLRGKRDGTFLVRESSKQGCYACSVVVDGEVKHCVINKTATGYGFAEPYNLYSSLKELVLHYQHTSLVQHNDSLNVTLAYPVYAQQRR
Sequence of p110α/p85 (P42336 whole entry): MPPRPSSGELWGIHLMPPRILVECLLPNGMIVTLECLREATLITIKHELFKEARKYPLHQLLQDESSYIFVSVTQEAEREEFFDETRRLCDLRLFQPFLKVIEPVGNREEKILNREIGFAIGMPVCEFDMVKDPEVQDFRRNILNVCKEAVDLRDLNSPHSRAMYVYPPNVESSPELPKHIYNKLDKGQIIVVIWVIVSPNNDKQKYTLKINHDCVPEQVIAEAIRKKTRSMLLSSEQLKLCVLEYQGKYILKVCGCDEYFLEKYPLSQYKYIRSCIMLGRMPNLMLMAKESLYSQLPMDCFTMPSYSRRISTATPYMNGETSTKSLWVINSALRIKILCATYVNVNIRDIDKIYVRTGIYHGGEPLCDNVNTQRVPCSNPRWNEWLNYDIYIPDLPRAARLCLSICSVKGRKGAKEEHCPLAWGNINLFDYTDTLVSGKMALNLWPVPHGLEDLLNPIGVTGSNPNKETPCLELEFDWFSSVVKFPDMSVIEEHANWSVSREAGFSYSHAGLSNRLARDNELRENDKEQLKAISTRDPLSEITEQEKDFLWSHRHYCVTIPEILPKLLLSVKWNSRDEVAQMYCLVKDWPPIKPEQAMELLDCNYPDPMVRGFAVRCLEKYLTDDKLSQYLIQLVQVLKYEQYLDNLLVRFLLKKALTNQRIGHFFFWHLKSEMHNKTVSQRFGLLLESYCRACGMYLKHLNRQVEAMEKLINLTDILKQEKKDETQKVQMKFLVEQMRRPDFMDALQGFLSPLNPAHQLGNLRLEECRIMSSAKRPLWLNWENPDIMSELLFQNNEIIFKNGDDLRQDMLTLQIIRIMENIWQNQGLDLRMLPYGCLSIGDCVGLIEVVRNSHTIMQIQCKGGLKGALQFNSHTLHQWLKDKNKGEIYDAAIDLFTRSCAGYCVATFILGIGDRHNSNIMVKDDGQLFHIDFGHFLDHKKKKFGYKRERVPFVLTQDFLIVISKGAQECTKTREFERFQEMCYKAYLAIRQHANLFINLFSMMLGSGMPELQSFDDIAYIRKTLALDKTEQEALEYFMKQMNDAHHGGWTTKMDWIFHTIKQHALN
Sequence of p110α/p85 (P27986 whole entry partner): as the sequence (P27986 whole entry partner, species assumed) above
Sequence of p110β/p85 (P42338 whole entry, species assumed): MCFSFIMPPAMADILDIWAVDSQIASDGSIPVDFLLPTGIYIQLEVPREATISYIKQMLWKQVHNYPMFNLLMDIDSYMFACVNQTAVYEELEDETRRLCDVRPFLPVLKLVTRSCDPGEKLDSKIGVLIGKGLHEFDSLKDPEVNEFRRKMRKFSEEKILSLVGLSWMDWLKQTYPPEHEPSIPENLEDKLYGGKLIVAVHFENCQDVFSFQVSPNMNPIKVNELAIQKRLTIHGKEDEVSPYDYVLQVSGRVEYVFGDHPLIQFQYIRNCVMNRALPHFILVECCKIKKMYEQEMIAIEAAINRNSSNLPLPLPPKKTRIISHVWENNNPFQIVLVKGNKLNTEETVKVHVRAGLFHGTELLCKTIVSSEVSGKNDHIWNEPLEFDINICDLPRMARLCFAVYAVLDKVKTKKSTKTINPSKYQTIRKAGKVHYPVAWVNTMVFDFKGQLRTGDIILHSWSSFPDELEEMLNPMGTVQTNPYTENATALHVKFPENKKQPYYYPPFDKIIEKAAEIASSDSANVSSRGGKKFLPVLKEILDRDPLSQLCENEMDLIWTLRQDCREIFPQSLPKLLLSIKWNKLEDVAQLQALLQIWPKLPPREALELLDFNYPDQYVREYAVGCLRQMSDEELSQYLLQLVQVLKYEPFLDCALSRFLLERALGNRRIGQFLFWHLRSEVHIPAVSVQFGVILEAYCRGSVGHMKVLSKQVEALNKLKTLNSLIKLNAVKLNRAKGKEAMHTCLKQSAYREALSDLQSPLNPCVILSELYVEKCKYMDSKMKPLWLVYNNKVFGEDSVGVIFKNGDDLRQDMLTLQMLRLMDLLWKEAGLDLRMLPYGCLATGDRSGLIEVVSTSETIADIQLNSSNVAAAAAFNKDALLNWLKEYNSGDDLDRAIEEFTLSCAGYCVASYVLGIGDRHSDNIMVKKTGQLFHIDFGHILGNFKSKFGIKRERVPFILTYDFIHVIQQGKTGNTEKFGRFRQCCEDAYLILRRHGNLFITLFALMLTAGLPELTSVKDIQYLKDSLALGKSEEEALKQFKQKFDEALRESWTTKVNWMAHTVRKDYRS
Sequence of p110β/p85 (P27986 whole entry partner, species assumed): as the sequence (P27986 whole entry partner, species assumed) above

| Compound | melting point | IC50 [1] | IC50 [2] | IC50 [3] | IC50 [4] | IC50 [5] |
| --- | --- | --- | --- | --- | --- | --- |
| COc1cccc2c1nc(C(F)F)n2-c1nc(N2CCOCC2)nc(N(C)c2cccnc2)n1 [Example 3, 4-[2-(difluoromethyl)-4-methoxy-1H-benzimidazol-1-yl]-N-methyl-6-(4-morpholinyl)-N-(3-pyridinyl)-1,3,5-triazin-2-amine] | 200 to 201 °C | < 100 nM | 100 to 1000 nM | < 100 nM | < 100 nM | < 100 nM |
| CSc1nc2ccccc2n1-c1nc(Nc2cccnc2)nc(N2CCOCC2)n1 [Example 4, 4-[2-(methylsulfanyl)-1H-benzimidazol-1-yl]-6-(4-morpholinyl)-N-(3-pyridinyl)-1,3,5-triazin-2-amine] | 240 to 241 °C | 100 to 1000 nM | < 100 nM | 1000 to 10000 nM | 1000 to 10000 nM | 100 to 1000 nM |
| CS(=O)(=O)c1nc2ccccc2n1-c1nc(Nc2cccnc2)nc(N2CCOCC2)n1 [Example 5, 4-[2-(methylsulfonyl)-1H-benzimidazol-1-yl]-6-(4-morpholinyl)-N-(3-pyridinyl)-1,3,5-triazin-2-amine] | 208 to 211 °C | 100 to 1000 nM | 100 to 1000 nM | 100 to 1000 nM | 100 to 1000 nM | < 100 nM |
| FC(F)c1nc2ccccc2n1-c1nc(Nc2ccccc2)nc(N2CCOCC2)n1 [Example 6, 4-[2-(difluoromethyl)-1H-benzimidazol-1-yl]-6-(4-morpholinyl)-N-phenyl-1,3,5-triazin-2-amine] | 171 to 174 °C | 100 to 1000 nM | 100 to 1000 nM | 100 to 1000 nM | 100 to 1000 nM | < 100 nM |
| CN(c1ccccc1)c1nc(N2CCOCC2)nc(-n2c(C(F)F)nc3ccccc32)n1 [Example 7, 4-[2-(difluoromethyl)-1H-benzimidazol-1-yl]-N-methyl-6-(4-morpholinyl)-N-phenyl-1,3,5-triazin-2-amine] | 160 to 162 °C | 100 to 1000 nM | 100 to 1000 nM | 100 to 1000 nM | 100 to 1000 nM | 100 to 1000 nM |
| FC(F)c1nc2ccccc2n1-c1nc(NCc2ccccc2)nc(N2CCOCC2)n1 [Example 8, N-benzyl-4-[2-(difluoromethyl)-1H-benzimidazol-1-yl]-6-(4-morpholinyl)-1,3,5-triazin-2-amine] | 185 to 188 °C | 100 to 1000 nM | 100 to 1000 nM | < 100 nM | 100 to 1000 nM | < 100 nM |
| FC(F)c1nc2ccccc2n1-c1nc(Oc2ccccc2)nc(N2CCOCC2)n1 [Example 10, 2-(difluoromethyl)-1-[4-(4-morpholinyl)-6-phenoxy-1,3,5-triazin-2-yl]-1H-benzimidazole] | 228 to 231 °C | 1000 to 10000 nM | > 10000 nM | > 10000 nM | > 10000 nM | 1000 to 10000 nM |
| FC(F)c1nc2ccccc2n1-c1nc(Sc2ccccc2)nc(N2CCOCC2)n1 [Example 11, 2-(difluoromethyl)-1-[4-(4-morpholinyl)-6-(phenylsulfanyl)-1,3,5-triazin-2-yl]-1H-benzimidazole] | 245 to 248 °C | > 10000 nM | > 10000 nM | > 10000 nM | > 10000 nM | 1000 to 10000 nM |
| O=S(=O)(c1ccccc1)c1nc(N2CCOCC2)nc(-n2c(C(F)F)nc3ccccc32)n1 [Example 12, 2-(difluoromethyl)-1-[4-(4-morpholinyl)-6-(phenylsulfonyl)-1,3,5-triazin-2-yl]-1H-benzimidazole] | 237 to 239 °C | > 10000 nM | > 10000 nM | 1000 to 10000 nM | 1000 to 10000 nM | 1000 to 10000 nM |
| FC(F)c1nc2ccccc2n1-c1nc(NCc2ccccn2)nc(N2CCOCC2)n1 [Example 13, 4-[2-(difluoromethyl)-1H-benzimidazol-1-yl]-6-(4-morpholinyl)-N-(2-pyridinylmethyl)-1,3,5-triazin-2-amine] | 192 to 193 °C | 100 to 1000 nM | 100 to 1000 nM | < 100 nM | < 100 nM | < 100 nM |
| FC(F)c1nc2ccccc2n1-c1nc(NCc2cccnc2)nc(N2CCOCC2)n1 [Example 14, 4-[2-(difluoromethyl)-1H-benzimidazol-1-yl]-6-(4-morpholinyl)-N-(3-pyridinylmethyl)-1,3,5-triazin-2-amine] | 160 to 161 °C | 100 to 1000 nM | 1000 to 10000 nM | 100 to 1000 nM | 100 to 1000 nM | < 100 nM |
| FC(F)c1nc2ccccc2n1-c1nc(Nc2ccncc2)nc(N2CCOCC2)n1 [Example 17, 4-[2-(difluoromethyl)-1H-benzimidazol-1-yl]-6-(4-morpholinyl)-N-(4-pyridinyl)-1,3,5-triazin-2-amine] | 222 to 224 °C | < 100 nM | < 100 nM | 100 to 1000 nM | < 100 nM | < 100 nM |
| FC(F)c1nc2ccccc2n1-c1nc(Nc2cccnn2)nc(N2CCOCC2)n1 [Example 23, 4-[2-(difluoromethyl)-1H-benzimidazol-1-yl]-6-(4-morpholinyl)-N-(3-pyridazinyl)-1,3,5-triazin-2-amine] | 271 to 273 °C | 100 to 1000 nM | 100 to 1000 nM | 100 to 1000 nM | < 100 nM | < 100 nM |
| Cn1cc(Nc2nc(N3CCOCC3)nc(-n3c(C(F)F)nc4ccccc43)n2)cn1 [Example 25, 4-[2-(difluoromethyl)-1H-benzimidazol-1-yl]-N-(1-methyl-1H-pyrazol-4-yl)-6-(4-morpholinyl)-1,3,5-triazin-2-amine] | 225 to 226 °C | 100 to 1000 nM | 100 to 1000 nM | 100 to 1000 nM | < 100 nM | < 100 nM |
| COc1ccncc1Nc1nc(N2CCOCC2)nc(-n2c(C(F)F)nc3ccccc32)n1 [Example 26, 4-[2-(difluoromethyl)-1H-benzimidazol-1-yl]-N-(4-methoxy-3-pyridinyl)-6-(4-morpholinyl)-1,3,5-triazin-2-amine] | 161 to 163 °C | 100 to 1000 nM | 100 to 1000 nM | 100 to 1000 nM | < 100 nM | < 100 nM |
| COc1ccncc1Nc1nc(N2CCOCC2)nc(-n2c(C(F)F)nc3c(OC)cccc32)n1 [Example 27, 4-[2-(difluoromethyl)-4-methoxy-1H-benzimidazol-1-yl]-N-(4-methoxy-3-pyridinyl)-6-(4-morpholinyl)-1,3,5-triazin-2-amine] | 239 to 241 °C | < 100 nM | 100 to 1000 nM | 100 to 1000 nM | < 100 nM | < 100 nM |
